Experiment [1] is described as follows: MITF Orthogonal Assay: SK-MEL-5 CTG Assay Measured in Cell-Based System Using Plate Reader - 2084-02_Inhibitor_Dose_DryPowder_Activity_Set7. It is filed as functional.
A short description of experiment [2]: TRPM1 promoter luciferase reporter signal decrease, dose response, MITF inhibitor project, cell-based, SK-MEL-5, dry powder, set 8 (AID 624430). Format: functional. In general terms: In a reporter assay the amount or activity of a reporter protein is the signal.
Experiment [3] can be described thus: MITF: Counter assay: A375 proliferation Measured in Cell-Based System Using Plate Reader - 2084-03_Inhibitor_Dose_DryPowder_Activity_Set8. Format: functional. Conditions: A-375.
A short description of experiment [4]: Jurkat T cell cytotoxicity, dose response, cytotoxicity control for P. falciparum gametocyte viability project, luminescence (AID 1117277).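 Also: potency reflects loss of cellular ATP meaning fewer viable cells.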 It is filed as functional, cell-based.
The nature of experiment [5]: P. falciparum late gametocyte killing, dose response, luminescence (AID 1117278).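 Also: gametocytes exposed to compound for 24 hours.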 Format: functional, cell-based.
Experiment [6] in a line: inhibitors of PGC1a acetylation in cells, dose response, cell-based, cherry-picked samples (AID 720514).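 Also: potency may reflect raised or lowered acetylation signal.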 Format: functional.
Experiment [7] can be described thus: inhibitors of Vif binding to APOBEC3G peptide, primary screen, biochemical, TR-FRET, GST-Vif 1-94, biotin-A3G peptide, dose response retest (AID 1117319).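 Also: TR-FRET signal of purified GST-Vif binding a biotinylated A3G peptide; inhibitors lower the FRET signal by blocking Vif and A3G binding.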 Format: functional. (TR-FRET usually uses a lanthanide donor and a delayed reading to cut background.)
The nature of experiment [8]: C. albicans growth with fluconazole, confirmation, fluorescence, retest (AID 2467). Format: functional, cell-based.
A short description of experiment [9]: NIH-3T3 fibroblast cytotoxicity, dose response, cytotoxicity control, cell-based, fluorescence, Alamar Blue, secondary assay (AID 2327).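 Also: NIH-3T3 mouse fibroblasts cultured with fluconazole at 8 µg/mL.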 Format: functional. (The colour change of resazurin is a common sign of viable cells or microbes.)
The target in the next experiment is Kallikrein-7 (Homo sapiens, UniProt P49862). The experiment can be described thus: Fluorescence Intensity-based biochemical primary high throughput dose response assay to identify activators of kallikrein-7 (K7) zymogen.
Chain of Kallikrein-7 (P49862 whole entry): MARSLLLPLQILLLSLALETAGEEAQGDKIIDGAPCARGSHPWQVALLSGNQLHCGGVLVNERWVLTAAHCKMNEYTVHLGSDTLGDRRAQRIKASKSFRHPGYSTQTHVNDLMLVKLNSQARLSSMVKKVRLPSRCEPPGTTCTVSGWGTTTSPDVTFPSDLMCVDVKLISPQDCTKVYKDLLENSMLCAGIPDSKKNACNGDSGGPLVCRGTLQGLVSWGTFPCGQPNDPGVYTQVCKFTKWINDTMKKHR
Experiment [10] can be described thus: HepG2 cell cytotoxicity, dose response, cytotoxicity control, plate reader, cherry-pick, antagonist series (AID 743416). It is filed as functional, cell-based.
Experiment [11] can be described thus: HEK293 cell cytotoxicity, dose response, cytotoxicity control, plate reader, cherry-picked samples (AID 743446). Format: functional, cell-based.
Experiment [12] can be described thus: LGR2 antagonists, dose response, cell-based, HEK293, CRE-luciferase reporter, cherry pick, set 2 (AID 743343).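 Also: transfected cells were stimulated with diluted bursicon conditioned medium after compound addition.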 It is filed as functional.
A short description of experiment [13]: MC4R antagonists, dose response, counter-screen for LGR2 antagonist project, cell-based, plate reader, cherry pick (AID 743444).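 Also: transfected HEK 293 cells stimulated with alpha-MSH peptide; potency of inhibitors of the alpha-MSH evoked signal.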 Format: functional.
The nature of experiment [14]: A549 cell cytotoxicity, dose response, cytotoxicity control, plate reader, cherry-pick, antagonist series (AID 743412). It is filed as functional, cell-based.
Experiment [15] in a line: CellTiter-Glo luminescent dose response of DLD-1 viability loss (AID 1117352). Format: functional.
Experiment [16] in a line: Concentration-dependent survival of SW480 colon cancer line, luminescence detection with CellTiter-Glo, half-maximal inhibitory concentration (AID 1117338). Format: functional.
Experiment [17] is described as follows: cytotoxicity toward HCT116 cells – cell-based, CellTiter-Glo luminescence, IC50, dose response (AID 1117332). It is filed as functional. Conditions: HCT-116.
Experiment [18] is described as follows: cytotoxicity toward HT-29 cells – cell-based, CellTiter-Glo luminescence, IC50, dose response (AID 1117330). Format: functional.
A short description of experiment [19]: SNU-C1 cell viability reduction, dose response, CellTiter-Glo luminescence (AID 1117323). It is filed as functional, cell-based.
Experiment [20] in a line: cytotoxicity toward Colo320 cells – cell-based, CellTiter-Glo luminescence, IC50, dose response (AID 1117334). Format: functional. Conditions: COLO 320.
A short description of experiment [21]: RKO cell viability reduction, dose response, CellTiter-Glo luminescence (AID 1117322). It is filed as functional.
A short description of experiment [22]: HepG2 cell cytotoxicity, dose response, cytotoxicity control, cherry-picked samples (AID 1159577). It is filed as functional, cell-based.
The nature of experiment [23]: P. falciparum Dd2 growth inhibitors, dose response, SYBR Green, cherry-picked samples (AID 1159567). Format: functional, cell-based.
The nature of experiment [24]: A549 cell cytotoxicity, dose response, cytotoxicity control, cherry-picks, 26 µM top dose (AID 1053119). It is filed as functional, cell-based.
Experiment [25] can be described thus: ADAM10 inhibitors, peptide cleavage, dose response, biochemical, QFRET (AID 743254).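 Also: ADAM10 enzyme with the DM2 quenched FRET peptide as substrate; EDANS fluorescence gain as the protease cuts the substrate; inhibitor potency against ADAM10 proteolytic activity.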
Experiment [26] has as its target Disintegrin and metalloproteinase domain-containing protein 17 (Homo sapiens, UniProt P78536). Description: ADAM17 protease inhibitors, dose response, counter-screen for ADAM10 exosite inhibitor project, biochemical, quenched FRET substrate (AID 743253).
Experiment [27] is described as follows: growth suppression of beta-catenin-knockout colon cells, dose response, cell-based, HCT116, human colon tumor (AID 1045).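 Also: HCT116 colon tumor cells with beta catenin knocked out; cells exposed to compound for 60 hours.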 It is filed as functional.
The target of the next experiment is T1, Caspase-6 (Homo sapiens, UniProt P55212).
T1 sequence (P55212 whole entry): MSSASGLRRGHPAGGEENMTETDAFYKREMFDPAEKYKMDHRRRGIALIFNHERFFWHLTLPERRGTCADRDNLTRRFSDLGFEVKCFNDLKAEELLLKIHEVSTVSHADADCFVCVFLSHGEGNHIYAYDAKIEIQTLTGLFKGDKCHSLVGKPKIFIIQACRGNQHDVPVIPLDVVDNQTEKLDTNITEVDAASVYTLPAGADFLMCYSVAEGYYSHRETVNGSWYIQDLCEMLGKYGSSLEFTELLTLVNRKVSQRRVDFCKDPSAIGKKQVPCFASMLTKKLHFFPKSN
Description: human caspase-6 inhibitors, dose response, biochemical, VEID-R110 fluorescence, cherry-pick (AID 720632).

The nature of experiment [28]: Vero cell cytotoxicity, dose response, cytotoxicity control for Vif-APOBEC3G degradation inhibitor project, Vero cells (AID 1117358). The settings on record: Human immunodeficiency virus 1, Vero. Format: functional.
Experiment [29] can be described thus: growth suppression of PTEN-null colon cells, dose response, cell-based, HCT116 PTEN knockout (AID 1047).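 Also: HCT116 colon tumor cells with PTEN knocked out; cells exposed to compound for 60 hours before readout; potency for loss of cell viability measured by luminescence.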 Format: functional.
The target in experiment [30] is E3 ubiquitin-protein ligase Mdm2 (Homo sapiens, UniProt Q00987). Description: enhancers of MDM2-luciferase reporter signal, concentration-effect titration, project on inhibitors of MDM2 ubiquitin ligase, cellular assay, luminescent readout, 384-well plate format (AID 1394).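 Also: MDM2 E3 inhibitors raise luminescence so EC50 is for signal enhancement.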 It is filed as functional.
Chain of E3 ubiquitin-protein ligase Mdm2 (Q00987 whole entry): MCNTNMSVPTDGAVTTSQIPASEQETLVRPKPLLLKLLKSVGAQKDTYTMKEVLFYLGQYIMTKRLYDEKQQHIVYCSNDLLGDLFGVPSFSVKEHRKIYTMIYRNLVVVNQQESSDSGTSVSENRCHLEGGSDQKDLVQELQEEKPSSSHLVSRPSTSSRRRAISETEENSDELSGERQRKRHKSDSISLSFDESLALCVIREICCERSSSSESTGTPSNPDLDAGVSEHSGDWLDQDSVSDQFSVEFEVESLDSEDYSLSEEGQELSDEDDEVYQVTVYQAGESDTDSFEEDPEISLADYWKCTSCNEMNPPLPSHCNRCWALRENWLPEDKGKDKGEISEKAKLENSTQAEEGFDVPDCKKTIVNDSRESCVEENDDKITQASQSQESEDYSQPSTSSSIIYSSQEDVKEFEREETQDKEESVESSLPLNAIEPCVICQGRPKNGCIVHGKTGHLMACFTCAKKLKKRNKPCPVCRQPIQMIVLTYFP
A short description of experiment [31]: Dose-response inhibition of insulin secretion in a rat insulinoma line at 5 mM glucose (AID 1117331). Format: functional, cell-based. Conditions: INS-1E.
Experiment [32] can be described thus: THP-1 cell cytotoxicity, dose response, cytotoxicity control for Vif-APOBEC3G degradation inhibitor project, THP-1 cells (AID 1117359). Format: functional. Conditions: Human immunodeficiency virus 1, THP-1.
For a further experiment, the target named is Genome polyprotein (dengue virus type 2, UniProt P29990). Description: Dengue-2 NS5 methyltransferase inhibitors, primary screen, biochemical, confirmation dose response (AID 588689). Format: functional.
Chain of Genome polyprotein (P29990 2492-3391 limits assumed): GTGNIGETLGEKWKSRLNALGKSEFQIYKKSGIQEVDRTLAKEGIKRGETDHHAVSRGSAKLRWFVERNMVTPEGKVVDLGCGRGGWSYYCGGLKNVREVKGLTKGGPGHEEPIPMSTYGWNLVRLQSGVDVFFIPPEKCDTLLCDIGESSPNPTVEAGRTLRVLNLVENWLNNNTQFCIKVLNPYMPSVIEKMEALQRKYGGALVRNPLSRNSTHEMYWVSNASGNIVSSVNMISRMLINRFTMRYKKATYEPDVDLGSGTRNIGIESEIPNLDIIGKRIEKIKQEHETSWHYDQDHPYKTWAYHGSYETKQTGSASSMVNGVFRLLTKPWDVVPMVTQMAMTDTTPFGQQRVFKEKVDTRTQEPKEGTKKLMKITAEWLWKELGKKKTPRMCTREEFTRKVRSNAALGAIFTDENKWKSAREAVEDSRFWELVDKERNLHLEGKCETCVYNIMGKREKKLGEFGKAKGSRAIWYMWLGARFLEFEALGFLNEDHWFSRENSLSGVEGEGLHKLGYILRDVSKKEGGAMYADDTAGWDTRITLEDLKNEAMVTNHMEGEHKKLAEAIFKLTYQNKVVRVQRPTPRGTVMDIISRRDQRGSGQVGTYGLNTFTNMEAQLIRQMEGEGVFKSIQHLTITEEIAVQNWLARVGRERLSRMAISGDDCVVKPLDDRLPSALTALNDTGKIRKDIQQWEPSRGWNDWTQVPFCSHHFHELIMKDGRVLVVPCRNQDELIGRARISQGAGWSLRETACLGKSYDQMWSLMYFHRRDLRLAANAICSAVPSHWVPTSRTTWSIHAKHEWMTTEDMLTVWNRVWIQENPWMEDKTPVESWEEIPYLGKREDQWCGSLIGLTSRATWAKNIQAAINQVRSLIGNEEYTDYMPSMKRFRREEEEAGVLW
Experiment [33] has as its target T2, Apoptotic protease-activating factor 1 (Homo sapiens, UniProt O14727).
T2 sequence (O14727 whole entry): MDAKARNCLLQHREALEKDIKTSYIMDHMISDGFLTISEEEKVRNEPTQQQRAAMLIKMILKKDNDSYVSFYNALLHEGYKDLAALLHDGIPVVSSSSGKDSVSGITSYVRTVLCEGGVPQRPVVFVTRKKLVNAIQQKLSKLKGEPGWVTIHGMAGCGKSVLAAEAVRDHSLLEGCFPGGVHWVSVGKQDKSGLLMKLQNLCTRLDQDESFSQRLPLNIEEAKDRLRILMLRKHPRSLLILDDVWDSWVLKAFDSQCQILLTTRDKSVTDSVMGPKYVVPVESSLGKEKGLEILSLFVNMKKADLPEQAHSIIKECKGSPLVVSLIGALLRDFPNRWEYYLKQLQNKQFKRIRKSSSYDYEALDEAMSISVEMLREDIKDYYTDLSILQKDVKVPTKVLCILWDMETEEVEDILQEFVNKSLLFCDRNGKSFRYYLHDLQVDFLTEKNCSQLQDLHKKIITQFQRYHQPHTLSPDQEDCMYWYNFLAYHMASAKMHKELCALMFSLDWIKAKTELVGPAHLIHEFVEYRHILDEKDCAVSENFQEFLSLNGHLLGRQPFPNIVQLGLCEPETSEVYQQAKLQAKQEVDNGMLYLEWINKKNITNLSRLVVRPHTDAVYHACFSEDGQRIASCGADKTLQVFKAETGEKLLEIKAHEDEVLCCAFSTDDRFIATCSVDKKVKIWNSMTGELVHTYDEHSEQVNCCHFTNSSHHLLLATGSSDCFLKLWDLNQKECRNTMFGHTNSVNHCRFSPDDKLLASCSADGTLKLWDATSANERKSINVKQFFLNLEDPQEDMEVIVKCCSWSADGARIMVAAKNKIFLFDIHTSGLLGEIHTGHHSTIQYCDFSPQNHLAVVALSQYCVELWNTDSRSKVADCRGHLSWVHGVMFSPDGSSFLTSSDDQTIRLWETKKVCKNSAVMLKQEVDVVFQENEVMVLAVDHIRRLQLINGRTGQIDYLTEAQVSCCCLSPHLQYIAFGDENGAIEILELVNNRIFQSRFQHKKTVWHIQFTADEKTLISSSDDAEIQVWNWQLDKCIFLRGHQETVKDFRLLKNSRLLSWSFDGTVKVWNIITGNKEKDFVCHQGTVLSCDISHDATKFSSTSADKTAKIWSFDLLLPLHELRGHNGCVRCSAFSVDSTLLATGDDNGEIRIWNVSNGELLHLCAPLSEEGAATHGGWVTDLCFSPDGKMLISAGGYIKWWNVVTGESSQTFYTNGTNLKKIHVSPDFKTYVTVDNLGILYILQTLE
It is filed as functional.

For a further experiment, the target named is T3, Protein Tat (Human immunodeficiency virus type 1 group M subtype B (isolate HXB2)(HIV-1), UniProt P04608).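 Also: tat binding to TAR RNA read out by fluorescence polarization.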
T3 sequence (P04608 whole entry): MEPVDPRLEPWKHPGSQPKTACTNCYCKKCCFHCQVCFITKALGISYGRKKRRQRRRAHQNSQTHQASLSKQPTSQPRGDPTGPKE
Format: functional.

Calls of active or inactive are those of the source.

Chain of Disintegrin and metalloproteinase domain-containing protein 17 (P78536 whole entry, the tested form may be a part): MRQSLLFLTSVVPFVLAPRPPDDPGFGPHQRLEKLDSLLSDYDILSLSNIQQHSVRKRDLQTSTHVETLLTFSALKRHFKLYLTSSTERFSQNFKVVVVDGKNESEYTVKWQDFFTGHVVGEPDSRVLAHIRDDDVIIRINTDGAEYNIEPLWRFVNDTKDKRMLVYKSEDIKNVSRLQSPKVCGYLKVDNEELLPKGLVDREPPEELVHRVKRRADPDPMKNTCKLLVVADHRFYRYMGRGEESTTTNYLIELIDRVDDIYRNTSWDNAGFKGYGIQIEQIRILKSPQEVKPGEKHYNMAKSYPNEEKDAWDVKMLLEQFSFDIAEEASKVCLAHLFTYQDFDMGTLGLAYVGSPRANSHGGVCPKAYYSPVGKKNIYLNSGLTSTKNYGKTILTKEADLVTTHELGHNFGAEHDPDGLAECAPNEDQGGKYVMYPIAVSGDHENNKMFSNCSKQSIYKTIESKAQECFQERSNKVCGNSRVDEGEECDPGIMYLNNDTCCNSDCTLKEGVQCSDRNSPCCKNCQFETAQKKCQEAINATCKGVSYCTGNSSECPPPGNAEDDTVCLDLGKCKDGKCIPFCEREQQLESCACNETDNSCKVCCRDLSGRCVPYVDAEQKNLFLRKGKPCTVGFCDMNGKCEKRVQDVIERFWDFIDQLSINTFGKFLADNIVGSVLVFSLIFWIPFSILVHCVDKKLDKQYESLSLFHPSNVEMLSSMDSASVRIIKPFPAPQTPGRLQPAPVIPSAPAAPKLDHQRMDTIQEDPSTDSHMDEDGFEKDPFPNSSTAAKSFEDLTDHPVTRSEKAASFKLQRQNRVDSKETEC

What is called AC50 is the concentration at which the activity in the assay is half-maximal. For `CN1CCN(C2=C(Nc3ccc(F)cc3)C(=O)c3ccccc3C2=O)CC1`, the AC50 in experiment [1] is 12.1 µM (active); in experiment [2], 8.28 µM (active); in experiment [3], > 70 µM (inactive).

For orientation: IC50 means the concentration that inhibits the measured activity by half. `CCOC(=O)C(C#N)C(c1cccnc1)c1c(C)n[nH]c1O` (stereo not given): the IC50 was > 83.3 µM (inactive) in [4] and > 109 µM (inactive) in experiment [5].

As to `O=C(/C=C/c1cccs1)c1ccc(NC(=O)c2cccc(Br)c2)cc1`, the AC50 in experiment [6] is 28.9 µM (active).

Turning to `CC1=C(C(=O)NCc2ccco2)C2(CCC(C)CC2)OC1=O` (stereo not given), the IC50 in experiment [7] was > 100 µM (active).

As a reminder, the EC50 is the concentration giving half of the maximal effect. For the molecule `C=CCO/C(O)=C1\C(C)=NC(SCC(=O)NC(=O)OCC)=C(C#N)C1c1cccnc1` (stereo not given), the EC50 was 6.32 µM (active) in experiment [8], > 150 µM (inactive) in experiment [9] and 4.56 µM (active) on Kallikrein-7.

Turning to `CCCc1c(-c2ccccc2F)ncn1CCc1ccccc1OC`, the AC50 was 23.6 µM (active) in [10]; 31.7 µM (active) in experiment [11]; 13.4 µM (active) in experiment [12]; 17.4 µM (active) in experiment [13]; 23.5 µM (active) in experiment [14].

`CC(C)(C)CC(C)(C)c1cc(Cc2cc(C(C)(C)CC(C)(C)C)cc(-n3nc4ccccc4n3)c2O)c(O)c(-n2nc3ccccc3n2)c1` [BISOCTRIZOLE]: the IC50 in [15], in [16], in experiment [17], in [18], in experiment [19] and in experiment [20] was > 20 µM (inactive) throughout. Also, the IC50 in [21] is > 20 µM (inactive).

Turning to `Fc1ccc(-c2ccc([C@@H]3[C@@H]4CN(Cc5ccccc5)C[C@H]3N4)cc2)cc1`, the AC50 is 8.83 µM (active) in [22], 4.07 µM (active) in [23] and 14.3 µM (active) in experiment [6].

For the molecule `COc1ccc(-c2cc(C(=O)NC3CC3)c3ccccc3n2)cc1`, the EC50 on Kallikrein-7 was 86.4 µM (inactive).

For the molecule `CN(C)C(=O)c1ccc(-c2ccc3c(c2)[C@H]2[C@H](CCN2C(=O)c2ccc(F)cc2)[C@@H](CO)N3C)cc1`, in experiment [24], the AC50 is > 47 µM (inactive).

As to `COc1cc(NC(=O)c2ccccc2)c(C)cc1NC(=O)CSc1nnc(-c2ccccc2F)n1-c1ccc(C)cc1`, the IC50 in [25] and in experiment [26] was > 69.5 µM (inactive) throughout.

The CC50 is the concentration giving 50% cytotoxicity. As for `CCOC(=O)c1c(C)oc2c1c(/C=N/Cc1ccccn1)c(O)c1ccccc12`, the EC50 in experiment [27] was 26.4 µM (active); in experiment [29], 25 µM (active). Also, the AC50 on Caspase-6 is 11 µM (active). For the same molecule, the CC50 in experiment [28] is 34.4 µM (active).

On to `Cc1ccccc1Nc1nnc(SCC2CCCCO2)s1` (stereo not given), for which the EC50 in [30] is 8.93 µM (not active).

With `Cc1csc(CNc2ncnc3ccc(-c4ccoc4)cc23)c1`, the AC50 in experiment [10] was 27.8 µM (active); in experiment [11] it was 28.9 µM (active); in [12], 0.81 µM (active); in experiment [13], 0.489 µM (active); in experiment [14], > 52 µM (inactive).

Regarding `CN(C)CC/C=C1\c2ccccc2Sc2ccc(Cl)cc21`, the IC50 in [31] was > 33.3 µM (inactive).

For `CCc1ccc(CNc2ccc(O)cc2)cc1`, in experiment [32], the CC50 is 26.4 µM (active). Moreover, the IC50 was > 100 µM (active) at Genome polyprotein, 27.5 µM (active) in [33], 25.4 µM (inconclusive) at Protein Tat and > 50.6 µM (active) in [7].

Values taken from ChEMBL document CHEMBL1201862, “PubChem BioAssay data set” (2004).
